Measurements taken from patent US9918931B2, “Method for providing a customized skin care product to a customer” (L'OREAL, priority 2016, dated 2018).

Test: Solubility of active ingredients in base oil composition
Type: physicochemical
Settings: active ingredient in base oil composition; loading without asterisk

Loading (wt %), soluble (not marked *): 3%
Structure (SMILES): O=C(O)c1ccccc1O [Salicylic Acid, reference compound]
